Results on one compound are retold here after patent US9095567B2, “Vaccine formulations” (priority 2010, dated 2015).

Test in all cases: Preservative effectiveness test, single challenge
Format in all cases: cell-based

For assay [1], the system named is Aspergillus niger (ATCC #16404). The text has this: (§1) To test for preservative effectiveness, aliquots of vaccine were inoculated with the following organisms:
(§2) Thirty milliliters (ml) of each vaccine formulation with and without Thimerosal or 2-PE at indicated concentrations or saline containing Thimerosal at 0.02% were inoculated in triplicates with a suspension of each test organism to achieve an inoculum density of approximately 10^5 to 10^6 CFU/ml at time 0 (CFU=colony forming units). […] Samples were mixed to ensure even distribution of challenged organisms. Another 30 ml of vaccine in triplicate (with and without preservative) were used as a negative control and spiked with the culture media alone to evaluate the inherent contamination that might be present in the sample or media. Each of the three series of vaccines, and positive and negative controls, was then separately incubated at 20 to 25° C. Aliquots (1 ml) of the challenged samples and controls (or their appropriate serial ten fold dilutions) were enumerated by plate count in duplicates at time 0 and at intervals of 6 hours, 24 hours, 7 days, 14 days and 28 days post-inoculation.
(§3) USP 29 NF 24 Supplement 2 (USP) requires that, after an inoculation of bacterial micro-organism(s), there is at least 1.0 log reduction from the initial calculated count (i.e., at time of inoculation) at 7 days, at least 3.0 log reduction at 14 days from the previous value measured and no increase at 28 days from the previous measured value. For yeast and fungi, the USP requirement is for there to be no increase from the time of inoculation to 7, 14 and 28 days.
(§4) EP requirements are more stringent. EP 5th Edition 5.6 (5.1.3) requirements for parenteral and ophthalmic preparations has two components: Category A and Category B. Category A (EP-A) requires, for bacteria, at least 2.0 log reduction from the initial calculated count at 6 hours after inoculation, at least 3.0 log reduction at 24 hours from the previous measured value, and no recovery at 28 days. Category B (EP-B) requires, for bacteria, at least 1.0 log reduction at 24 hours from the initial calculated count, at least 3.0 log reduction at 7 days from the previous value measured and not more than 0.5 log increase at 28 days from the previous value measured (i.e., no increase). For yeast and fungi, Category A requires at least 2.0 log reduction at 7 days and no increase from the previous value measured at 28 days, and Category B requires at least 1.0 log reduction at 14 days and no increase from the previous value measured at 28 days.
(§5) Plates containing <300 CFU for bacteria or <100 CFU for yeast or mold were used during enumeration. For single challenge studies, arithmetic average count of all surviving micro-organisms in triplicate and on duplicate plates (6 values per time point) plus their diluted samples were measured and normalized as CFU/ml. The results are expressed as mean log10 CFU/ml reduction (compared to time 0). In this case, the count of surviving micro-organisms is evaluated at time 0 as the baseline and compared to incubation time of 6 hours, 24 hours, 7 days, 14 days and 28 days.

The test system of the next assay is E. coli. As to conditions: Prev(e)nar 13 formulation, 20 to 25° C.
Excerpt: as §1, §2, §3, §4, §5

In assay [2] the test system is Pseudomonas aeruginosa (ATCC #9027). The conditions noted are these: Prev(e)nar 13 formulation, 20 to 25° C.
Excerpt: as §1, §2, §3, §4, §5

Setting [3] is: 5 mg/dose 2-PE in Prev(e)nar 13, single challenge.
[4] abbreviates: Prev(e)nar 13 formulation, single challenge, 20 to 25° C.

As to `OCCOc1ccccc1` [2-PE, 2-phenoxyethanol], in assay [1] (setting [3]), the “effectiveness as a preservative against A. niger compared with Thimerosal” value is given as “less effective” and the “rate of decline of A. niger contamination compared to Thimerosal” value was “slower”. Also, in assay [1] (setting [4]), the “EP (EP-B) vaccine safety requirements, A. niger” value was “Fails” and the “USP vaccine safety requirements, A. niger” value was “Meets”. Moreover, in the assay on E. coli, the “EP (EP-B) vaccine safety requirements, E. coli” value is reported as “Fails” and the “USP vaccine safety requirements, E. coli” value is reported as “Meets”. In assay [2], the “EP (EP-B) vaccine safety requirements, P. aeruginosa” value is reported as “Fails” and the “USP vaccine safety requirements, P. aeruginosa” value is on record as “Meets”.
